Read-outs that look alike come from different tables or passages of the source. Numbered stars: 1 amine (or outer) side, 2 acyl side, 3 side chain; on linkers, the order of the positions; unused ones are H or OH. Square brackets hold non-standard residues; d marks the D form. Ends that are not written are not given here. Peptide text beside a SMILES is read from it. Eb = biotinyl-PEG-Glu: N-γ-(N-biotinyl-3-(2-(2-(3-aminopropyloxy)-ethoxy)-ethoxy)-propyl)-L-glutamine, O=C(CCCC[C@@H]1SC[C@@H]2NC(=O)N[C@@H]21)NCCCOCCOCCOCCCNC(=O)CC[C@H](N[*:1])C(=O)[*:2]; Ahx = NCCCCCC(=O)O
Assays:
[1] = tested on: EAE mouse model (SJL/J female mice immunized with PLP/CFA); assay type: in vivo; conditions: for number of animals that died, Day 10 / number of animals that died, Day 11 / number of animals that died, Day 14 / number of animals that died, Total: 10 mice/group; for toxicity (conclusion from mortality, in words): mouse, in vivo
Description: To evaluate the in vivo activity of these molecules, SJL/J female mice at 6-8 weeks of age (Jackson Laboratory, Bar Harbor, Me.) were divided into six groups with ten mice in each group. At the initiation state (Day 0), all mice (10/group) were immunized by subcutaneous (s.c.) inoculation with 200 μg of PLP in a 0.2 mL emulsion with equal volumes of phosphate buffered saline (“PBS”) and complete Freund's adjuvant (“CFA”) (Difco, Detroit, Mich.). To enhance immunization with antigen, killed Mycobacterium tuberculosis strain H37RA (Difco) was added to the emulsion at a concentration of 4 mg/mL and administered to regions above the shoulder and the flanks. The injection volume was 50 μL at each injection site. In addition, 200 ng of pertussis toxin (List Biological Laboratories, Campbell, Calif.) was injected intraperitoneally (i.p.) on the day of immunization and 48 hours post-immunization. The onset of disease was on day 8 to day 12 post-immunization. Then, each mouse in Groups 1-4 received intravenous (i.v.) injections of 100 nmole/100 μL of the test peptides (PLP-BPI, PLP139-151, OVA-BPI, LABL) on days 4, 7, 10 and 14. Group 5 animals were injected with PBS on days 4, 7, 10 and 14. Group 6 animals received one i.p. injection of 500 μg PLPL,R on day 7.
All of the immunized mice were scored blindly 5-6 days/week by the same observer. Mean daily clinical scores were calculated by adding the grades of each mouse individually divided by the number of mice in each group. All animals were observed daily and, upon signs of paralysis and weakness, gel food and Napa nectar were provided to the animals to prevent dehydration. Saline was injected (s.c.) if a weight loss of 10% was observed within a 24-hour period. Body weight and disease scoring started at the onset of the disease (day 8). The measurements were continued daily (5 to 6 days/week) until the end of the disease.
The statistical analyses of the EAE scores and EAE incidence were done using Mann-Whitney U test and Kaplan-Meier analysis, respectively. The comparison was done between the peptide-treated mice (Groups 1, 2, 3, 4, and 6) and the control group (Group 5) at day 14 post-immunization.

EAE mouse model = assay: EAE mouse model, PLP-BPI vs mixture of PLP and LABL and VP2-BPI (Example 4); assay type: in vivo
Text: To evaluate whether linking PLP and LABL peptides to give PLP-BPI has a significant role on its immunomodulatory activity, the activity of PLP-BPI was compared with that of a mixture of unlinked PLP and LABL peptides at the same concentration. To answer whether any antigenic peptide such as VP2 peptide that is linked to LABL peptide to give VP2-BPI will have immunomodulatory activity similar to that of PLP-BPI, we evaluated the activity of VP2-BPI in the same experiment. VP274-86 is an epitope peptide of Theiler's encephalomyelitis virus capsid protein VP2, and is known to bind to I-A^s. PBS-treated mice were used as the negative control. The experimental protocol was the same as in the previous study (see FIG. 1). Thus, VP2-BPI was used as a control to example to see if the PLP portion of the PLP-BPI is important to therapeutic activity.

LS102.9 mouse B-cells = assay: Binding of biotin-labeled PLP-BPI to B-cell line, flow cytometry; assay type: cell-based; conditions: 50 μM, 16 hours at 37° C.; FIG. 11(A)
Text: (each step was followed by washing×3). […] The results are illustrated in FIG. 11.

[2] = tested on: T-cell-depleted splenocytes isolated from SJL/J female mice (EAE-induced); conditions: 50 μM, 16 hours at 37° C.; FIG. 11(B)
[3] = tested on: PLP/CFA-immunized female SJL/J mice; assay: Anaphylaxis incidence after injection of the peptide at later phase of disease; assay type: in vivo, mouse
Text: The less incidence of inducing anaphylactic shock by BPI molecules was further examined. Female SJL/J mice were immunized with PLP/CFA as above, and injected intravenously with PLP or BPI molecules (100 nmol/mouse) at later phase of the disease (i.e., between day 28 and day 35). […] This was confirmed in another set of experiment, PLP-BPI induced anaphylaxis to 38.5% of treated mice while PLP caused anaphylaxis to more than 80% of treated mice (Table 9, Experiment II). In addition, 100% of mice that were injected with unlinked mixture of PLP and LABL (100 nmol each) died due to anaphylaxis. […] Taken together, BPI molecules (including PLP-BPI and Ac-PLP-BPI-NH2) could suppress EAE more efficiently with lower incidence of inducing anaphylaxis than PLP.

PLP/CFA-immunized mice = assay: Anaphylaxis incidence after re-injection of the peptide at day 30
Description: In this example, the ability of BPI molecules to induce anaphylaxis after multiple injections was investigated.

[4] = Experiment III, 100 nmol/mouse i.v.
[5] = peptide treatment day 4 (one), re-injection day 30
[6] = peptide treatment day 4, 7, 10, 14 (four), re-injection day 30
[7] = Experiment I, 100 nmol/mouse i.v. between day 28 and day 35
[8] = Experiment II, 100 nmol/mouse i.v. (mixture 100 nmol each)

## CC[C@H](C)[C@H](NC(=O)CCCCCNC(=O)CNC(=O)CCCCCNC(=O)CNC(=O)CCCCCNC(=O)[C@H](C)NC(=O)[C@H](CCC(=O)O)NC(=O)[C@H](CC(N)=O)NC(=O)[C@@H](NC(=O)[C@H](CCC(=O)O)NC(=O)[C@H](C)NC(=O)[C@H](Cc1c[nH]cn1)NC(=O)[C@H](C)NC(=O)[C@H](C)NC(=O)[C@H](Cc1c[nH]cn1)NC(=O)[C@@H](NC(=O)[C@H](C)N)C(C)C)[C@@H](C)CC)C(=O)N[C@H](C(=O)N[C@@H](CC(=O)O)C(=O)NCC(=O)N[C@@H](CCC(=O)O)C(=O)N[C@@H](C)C(=O)N[C@H](C(=O)N[C@@H](CC(=O)O)C(=O)N[C@@H](CO)C(=O)NCC(=O)O)[C@@H](C)O)[C@@H](C)O [OVA-BPI, AVHAAHAEINEA-AcGAcGAc-ITDGEATDSG]
[1]
  number of animals that died, Day 10: 0
  number of animals that died, Day 11: 0
  number of animals that died, Day 14: 2
  number of animals that died, Total: 2

## QEAFSHIRIPLPH-AcGAcGAc-ITDGEATDSG (QEAFSHIRIPLPH[Ahx]G[Ahx]G[Ahx]ITDGEATDSG; listed as Homo sapiens) [VP2-BPI]
EAE mouse model; after day 17, FIG. 8(B)
  disease incidence: 100%
EAE mouse model; around day 14, FIG. 8(C)
  loss of body weight (in words): greatest in PBS-treated mice followed by VP2-BPI-treated mice

## EbHSLGKWLGHPDKF-AcGAcGAc-ITDGEATDSG ([Eb]HSLGKWLGHPDKF[Ahx]G[Ahx]G[Ahx]ITDGEATDSG) [B-PLP-BPI]
LS102.9 mouse B-cells
  binding to LS102.9 B-cell line (in words): binds to LS102.9 B-cell line
[2]
  binding to B-cells from the spleen of EAE-induced mice (in words): can also bind to the B-cells from the spleen of EAE-induced mice

## CC[C@H](C)[C@H](NC(=O)CCCCCNC(=O)CNC(=O)CCCCCNC(=O)CNC(=O)CCCCCNC(=O)[C@H](Cc1ccccc1)NC(=O)[C@H](CCCCN)NC(=O)[C@H](CC(=O)O)NC(=O)[C@@H]1CCCN1C(=O)[C@H](Cc1c[nH]cn1)NC(=O)CNC(=O)[C@H](CC(C)C)NC(=O)[C@H](Cc1c[nH]c2ccccc12)NC(=O)[C@H](CCCCN)NC(=O)CNC(=O)[C@H](CC(C)C)NC(=O)[C@H](CO)NC(=O)[C@H](Cc1c[nH]cn1)NC(C)=O)C(=O)N[C@H](C(=O)N[C@@H](CC(=O)O)C(=O)NCC(=O)N[C@@H](CCC(=O)O)C(=O)N[C@@H](C)C(=O)N[C@H](C(=O)N[C@@H](CC(=O)O)C(=O)N[C@@H](CO)C(=O)NCC(N)=O)[C@@H](C)O)[C@@H](C)O [Ac-PLP-BPI-NH2, Ac-HSLGKWLGHPDKF)-AcGAcGAc-ITDGEATDSG-NH2]
[3]; [4]
  Incidence of anaphylaxis: 43.8%
  Incidence of anaphylaxis (animals/total): 7/16
PLP/CFA-immunized mice; [5]
  Moribund or death: 2/6
PLP/CFA-immunized mice; [6]
  Moribund or death: 1/6

## CC(C)C[C@H](NC(=O)[C@H](CC(C)C)NC(=O)[C@H](CCCCN)NC(=O)CNC(=O)[C@H](CC(C)C)NC(=O)[C@H](CO)NC(=O)[C@@H](N)Cc1c[nH]cn1)C(=O)NCC(=O)N[C@@H](CCCNC(=N)N)C(=O)N1CCC[C@H]1C(=O)N[C@@H](CC(=O)O)C(=O)N[C@@H](CCCCN)C(=O)N[C@@H](Cc1ccccc1)C(=O)O [PLPL,R, HSLGKLLGRPDKF] (H-HSLGKLLGRPDKF-OH)
[1]
  number of animals that died, Day 10: 0
  number of animals that died, Day 11: 5
  number of animals that died, Day 14: 1
  toxicity (conclusion from mortality, in words): severe effect (toxicity)

## CC(C)C[C@H](NC(=O)[C@H](Cc1c[nH]c2ccccc12)NC(=O)[C@H](CCCCN)NC(=O)CNC(=O)[C@H](CC(C)C)NC(=O)[C@H](CO)NC(=O)[C@@H](N)Cc1c[nH]cn1)C(=O)NCC(=O)N[C@@H](Cc1c[nH]cn1)C(=O)N1CCC[C@H]1C(=O)N[C@@H](CC(=O)O)C(=O)N[C@@H](CCCCN)C(=O)N[C@@H](Cc1ccccc1)C(=O)O [PLP, HSLGKWLGHPDKF]
[3]; [7]
  Incidence of anaphylaxis: 75.0%
  Incidence of anaphylaxis (animals/total): 9/12
[3]; [8]
  Incidence of anaphylaxis (animals/total): 11/13
[3]; [4]
  Incidence of anaphylaxis: 76.5%
  Incidence of anaphylaxis (animals/total): 13/17
[1]
  number of animals that died, Day 10: 0
  number of animals that died, Day 11: 0
  number of animals that died, Day 14: 0
  number of animals that died, Total: no animals died
[1]; listed as PLP139-151
  number of animals that died, Total: 0
PLP/CFA-immunized mice; peptide treatment None (PBS) day 4, 7, 10, 14, peptide injection day 30
  Moribund or death: 3/4

## CC[C@H](C)[C@H](N)C(=O)N[C@H](C(=O)N[C@@H](CC(=O)O)C(=O)NCC(=O)N[C@@H](CCC(=O)O)C(=O)N[C@@H](C)C(=O)N[C@H](C(=O)N[C@@H](CC(=O)O)C(=O)N[C@@H](CO)C(=O)NCC(=O)O)[C@@H](C)O)[C@@H](C)O [LABL, ITDGEATDSG]
[1]
  number of animals that died, Day 10: 3
  number of animals that died, Day 11: 1
  number of animals that died, Day 14: 0

## CC[C@H](C)[C@H](NC(=O)CCCCCNC(=O)CNC(=O)CCCCCNC(=O)CNC(=O)CCCCCNC(=O)[C@H](Cc1ccccc1)NC(=O)[C@H](CCCCN)NC(=O)[C@H](CC(=O)O)NC(=O)[C@@H]1CCCN1C(=O)[C@H](Cc1c[nH]cn1)NC(=O)CNC(=O)[C@H](CC(C)C)NC(=O)[C@H](Cc1c[nH]c2ccccc12)NC(=O)[C@H](CCCCN)NC(=O)CNC(=O)[C@H](CC(C)C)NC(=O)[C@H](CO)NC(=O)[C@@H](N)Cc1c[nH]cn1)C(=O)N[C@H](C(=O)N[C@@H](CC(=O)O)C(=O)NCC(=O)N[C@@H](CCC(=O)O)C(=O)N[C@@H](C)C(=O)N[C@H](C(=O)N[C@@H](CC(=O)O)C(=O)N[C@@H](CO)C(=O)NCC(=O)O)[C@@H](C)O)[C@@H](C)O [PLP-BPI, HSLGKWLGHPDKF-AcGAcGAc-ITDGEATDSG]
[3]; [7]
  Incidence of anaphylaxis: 35.7%
  Incidence of anaphylaxis (animals/total): 5/14
[3]; [8]
  Incidence of anaphylaxis: 38.5%
  Incidence of anaphylaxis (animals/total): 5/13
[1]
  number of animals that died, Day 10: 0
  number of animals that died, Day 11: 0
  number of animals that died, Day 14: 0
  toxicity (conclusion from mortality, in words): low toxicity
PLP/CFA-immunized mice; [5]
  Moribund or death: 3/6
PLP/CFA-immunized mice; [6]
  Moribund or death: 1/6
